Laboratory results from publication PMC13441234 (2025).

Key:
[1] = tested on: Phenylalanine aptamer (on 8 nm SiO2 blocking layer) (DNA, aptamer) CGACCGCGTTTCCCAAGAAAGCAAGTATTGGTTGGTCG; assay: square wave voltammetry, electrochemical aptamer sensor; conditions: 1x PBS, room temperature, 300 Hz, 50 mV amplitude, apparent, immobilised aptamer, n = 3 electrodes
[2] = tested on: Phenylalanine aptamer (on gold with alkylthiolate/MCH blocking layer) (DNA, aptamer) CGACCGCGTTTCCCAAGAAAGCAAGTATTGGTTGGTCG; assay: as above; conditions: 1x PBS (cation concentrations not given); apparent; 300 Hz; immobilised aptamer; whether own (Figure A2) or literature value not explicit

binding constant [1]: 12 µM
binding constant [2]: 400 µM
Compound: N[C@@H](Cc1ccccc1)C(=O)O
